One assay concerns the target T1, OX2 (Homo sapiens, UniProt O43614).
T1 construct: expressed in transfected cells; host or cells: CHO (CHO-OX2)
T1 sequence (O43614 1-444): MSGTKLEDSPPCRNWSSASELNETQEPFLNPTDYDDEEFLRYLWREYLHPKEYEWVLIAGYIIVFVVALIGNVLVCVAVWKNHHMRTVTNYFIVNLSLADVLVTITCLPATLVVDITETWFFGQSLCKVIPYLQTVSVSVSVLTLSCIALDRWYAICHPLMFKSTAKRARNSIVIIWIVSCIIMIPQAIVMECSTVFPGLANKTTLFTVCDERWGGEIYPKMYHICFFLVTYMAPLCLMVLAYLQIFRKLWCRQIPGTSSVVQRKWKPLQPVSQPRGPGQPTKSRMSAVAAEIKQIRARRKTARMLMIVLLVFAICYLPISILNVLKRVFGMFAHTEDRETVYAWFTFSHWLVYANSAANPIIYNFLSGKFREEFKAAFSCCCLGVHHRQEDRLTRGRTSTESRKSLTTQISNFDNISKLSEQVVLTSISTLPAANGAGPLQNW
Nature of the assay: Orexin receptor cell-based functional assay, [Ca2+]i by FLIPR, CHO-OX2 cells. Conditions: FLIPR calcium, antagonism of EC90 of [OX]. As for the experimental part:
(§1) Measurement of [Ca^2+]i using a FLIPR: CHO-OX1 or CHO-OX2 cells were seeded into black-walled clear-base 384-well plates (Corning, catalog #3712) at a density of 20,000 cells per well in F12-K medium supplemented with 10% FBS and then incubated in a 5% CO2, 37° C. incubator overnight to reach 90% confluency. The cells were incubated with equal volume of calcium6 loading buffer (Molecular Devices, Inc.) containing 2.5 mM probenecid at 37° C. for 2 h, followed by test compounds (dose-range 0.1 nM-10 μM) for another 30 min. The plates were then placed into a FLIPR (Molecular Devices, Inc.) to monitor fluorescence (λ excitation 488 nm, λ emission 540 nm) before and after the addition of EC90 of [OX]. Results for exemplary compounds of Formulae (I), (Ia), (Ib), (II), (IIa), (III), (IIIa), (IV), (IVa), (V), or (Va) are shown in Table 3.

The next assay deals with T2, OX1 (Homo sapiens, UniProt O43613).
T2 construct: expressed in transfected cells; host or cells: CHO (CHO-OX1)
T2 sequence (O43613 1-425): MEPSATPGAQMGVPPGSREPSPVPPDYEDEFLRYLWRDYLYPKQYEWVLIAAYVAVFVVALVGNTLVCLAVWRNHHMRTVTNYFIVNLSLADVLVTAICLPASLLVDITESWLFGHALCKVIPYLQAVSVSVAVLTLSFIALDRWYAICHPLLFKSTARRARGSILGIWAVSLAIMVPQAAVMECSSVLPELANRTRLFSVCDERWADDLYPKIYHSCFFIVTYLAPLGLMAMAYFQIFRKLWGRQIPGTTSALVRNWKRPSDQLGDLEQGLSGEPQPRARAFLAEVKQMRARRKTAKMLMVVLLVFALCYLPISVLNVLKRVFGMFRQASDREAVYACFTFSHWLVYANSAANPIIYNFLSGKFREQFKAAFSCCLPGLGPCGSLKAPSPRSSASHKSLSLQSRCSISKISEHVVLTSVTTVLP
Nature of the assay: Orexin receptor cell-based functional assay, [Ca2+]i by FLIPR, CHO-OX1 cells. To be noted: FLIPR calcium, antagonism of EC90 of [OX], read-out: OXI, IC50. Here is the method:
as §1, with “[OX].” for “[OX]. Results for exemplary compounds of Formulae (I), (Ia), (Ib), (II), (IIa), (III), (IIIa), (IV), (IVa), (V), or (Va) are shown in Table 3.”

The source of these data is patent US12084437B2, “Halo-substituted piperidines as orexin receptor modulators” (AstraZeneca AB, priority 2016, dated 2024).

For the molecule `C[C@@H]1CC(F)(F)CN(C(=O)c2cc(F)ccc2-n2nccn2)[C@@H]1CNc1ncc(C(F)(F)F)cn1` [Compound 1, ((2S,3R)-5,5-difluoro-3-methyl-2-(((5-(trifluoromethyl)pyrimidin-2-yl)amino)methyl)piperidin-1-yl)(5-fluoro-2-(2H-1,2,3-triazol-2-yl)phenyl)methanone], the IC50 (in general, the concentration that gives 50% inhibition) at OX2 was greater than 5000 nM; on OX1 it was 192 nM.

As for `C[C@@H]1CC(F)(F)CN(C(=O)c2cc(Cl)ccc2-n2ncnn2)[C@@H]1CNc1ncc(C(F)(F)F)cn1` [Compound 4], the IC50 is greater than 5000 nM on OX2 and 81 nM at OX1.

Regarding `Cc1ccc(-n2nccn2)c(C(=O)N2CC(F)(F)C[C@@H](C)[C@H]2CNc2ncc(C(F)(F)F)cn2)c1` [Compound 5], the results for the IC50 at OX2 and on OX1 were greater than 5000 nM and 10 nM, respectively.

As to `Cc1ccc(-n2nccn2)c(C(=O)N2CC(F)(F)C[C@@H](C)[C@H]2CNc2ncc(Cl)cn2)c1` [Compound 6], the IC50 on OX2 was greater than 5000 nM; at OX1, 8 nM.

As to `Cc1ccc(-n2ncc(C)n2)c(C(=O)N2CC(F)(F)C[C@@H](C)[C@H]2CNc2ncc(C(F)(F)F)cn2)c1` [Compound 7], the IC50 on OX2 is greater than 5000 nM; at OX1 it was 7 nM.

On to `Cc1ccc(-c2nnn(C)n2)c(C(=O)N2CC(F)(F)C[C@@H](C)[C@H]2CNc2ncc(C(F)(F)F)cn2)c1` [Compound 8], for which the IC50 on OX2 was greater than 5000 nM; on OX1, 8 nM.

`Cc1ccc(-c2nnn(C)n2)c(C(=O)N2CC(F)(F)C[C@@H](C)[C@H]2CNc2ncc(Cl)cn2)c1` [Compound 9]: the IC50 on OX2 is greater than 5000 nM; on OX1, 6 nM.

Consider `C[C@@H]1CC(F)(F)CN(C(=O)c2cc(Cl)ccc2-n2nccn2)[C@@H]1CNc1ncc(C(F)(F)F)cn1` [Compound 10], for which the IC50 was greater than 5000 nM at OX2 and 7 nM on OX1.

Take `C[C@@H]1CC(F)(F)CN(C(=O)c2cc(Cl)ccc2-n2nccn2)[C@@H]1CNc1ncc(Cl)cn1` [Compound 11]: the IC50 at OX2 is greater than 5000 nM; on OX1 it was 8 nM.

In the case of `Cc1ccc(-n2nccn2)c(C(=O)N2CC(F)(F)C[C@@H](C)[C@H]2CNc2ncc(C(F)(F)F)cn2)n1` [Compound 12], the IC50 is greater than 5000 nM on OX2 and 15 nM at OX1.

With `Cc1ccc(-n2nccn2)c(C(=O)N2CC(F)(F)C[C@@H](C)[C@H]2CNc2ncc(Cl)cn2)n1` [Compound 13], the IC50 on OX2 is greater than 5000 nM; on OX1, 15 nM.

In the case of `C[C@@H]1CC(F)(F)CN(C(=O)c2cc(C#N)ccc2-n2nccn2)[C@@H]1CNc1ncc(C(F)(F)F)cn1` [Compound 14], the IC50 on OX2 was greater than 5000 nM; on OX1 it was 52 nM.

For the molecule `C[C@@H]1CC(F)(F)CN(C(=O)c2cc(C#N)ccc2-n2nccn2)[C@@H]1CNc1ncc(Cl)cn1` [Compound 15], the results for the IC50 on OX2 and on OX1 were greater than 5000 nM and 46 nM, respectively.

For `Cc1ccc(-c2ccccn2)c(C(=O)N2CC(F)(F)C[C@@H](C)[C@H]2CNc2ncc(C(F)(F)F)cn2)n1` [Compound 16, ((2S,3R)-5,5-difluoro-3-methyl-2-(((5-(trifluoromethyl)pyrimidin-2-yl)amino)methyl)piperidin-1-yl)(6′-methyl-[2,3′-bipyridin]-2′-yl)methanone], the IC50 at OX2 is greater than 5000 nM; at OX1, 60 nM.

Regarding `Cc1ccc(-c2ncccn2)c(C(=O)N2CC(F)(F)C[C@@H](C)[C@H]2CNc2ncc(C(F)(F)F)cn2)n1` [Compound 17, ((2S,3R)-5,5-difluoro-3-methyl-2-(((5-(trifluoromethyl)pyrimidin-2-yl)amino)methyl)piperidin-1-yl)(6-methyl-3-(pyrimidin-2-yl)pyridin-2-yl)methanone], the 50% inhibitory concentration (IC50) at OX2 is greater than 5000 nM; at OX1, 8 nM.

For the molecule `Cc1ccc(-c2ncccn2)c(C(=O)N2CC(F)(F)C[C@@H](C)[C@H]2CNc2ncc(Cl)cn2)n1` [Compound 18, ((2S,3R)-2-(((5-chloropyrimidin-2-yl)amino)methyl)-5,5-difluoro-3-methylpiperidin-1-yl)(6-methyl-3-(pyrimidin-2-yl)pyridin-2-yl)methanone], the IC50 on OX2 was greater than 5000 nM; on OX1 it was 18 nM.

For the molecule `Cc1noc(-c2ccc(Cl)cc2C(=O)N2CC(F)(F)C[C@@H](C)[C@H]2CNc2ncc(C(F)(F)F)cn2)n1` [Compound 19], the IC50 at OX2 is greater than 5000 nM; at OX1, 10 nM.

Take `CCc1cnc(NC[C@@H]2[C@H](C)CC(F)(F)CN2C(=O)c2nn(C)cc2-c2ccccc2)nc1` [Compound 20]: the IC50 on OX2 is greater than 5000 nM; on OX1 it was 87 nM.

Take `C[C@@H]1CC(F)(F)CN(C(=O)c2nn(C)cc2-c2ccccc2)[C@@H]1CNc1ncc(C(F)(F)F)cn1` [Compound 21]: the IC50 on OX2 was greater than 5000 nM; on OX1, 2 nM.

For `C[C@@H]1CC(F)(F)CN(C(=O)c2nn(C)cc2-c2ccccc2)[C@@H]1CNc1ncc(Cl)cn1` [Compound 22], the results for the IC50 on OX2 and at OX1 were greater than 5000 nM and 7 nM, respectively.

Regarding `C[C@@H]1CC(F)(F)CN(C(=O)c2nn(C)cc2-c2ccccc2F)[C@@H]1CNc1ncc(C(F)(F)F)cn1` [Compound 23], at OX2, the IC50 was greater than 5000 nM.

Consider `Cc1ccccc1-c1cn(C)nc1C(=O)N1CC(F)(F)C[C@@H](C)[C@H]1CNc1ncc(C(F)(F)F)cn1` [Compound 24], for which the IC50 is greater than 5000 nM at OX2 and 385 nM on OX1.

For `C[C@@H]1CC(F)(F)CN(C(=O)c2nn(C)cc2-c2cccc(F)c2)[C@@H]1CNc1ncc(C(F)(F)F)cn1` [Compound 25], the IC50 is greater than 5000 nM at OX2 and 4 nM at OX1.

Consider `C[C@@H]1CC(F)(F)CN(C(=O)c2nn(C)cc2-c2ccc(F)cc2)[C@@H]1CNc1ncc(C(F)(F)F)cn1` [Compound 30], for which the IC50 at OX2 is greater than 5000 nM.

Turning to `Cc1cccc(-c2sc(C)nc2C(=O)N2CC(F)(F)C[C@@H](C)[C@H]2CNc2ncc(C(F)(F)F)cn2)c1` [Compound 63], the IC50 on OX2 was greater than 5000 nM.

On to `Cc1nc(C(=O)N2CC(F)(F)C[C@@H](C)[C@H]2CNc2cnc(C(F)(F)F)cn2)c(-c2ccc(F)cc2)s1` [Compound 137], for which the IC50 at OX1 worked out at 5 nM.

Regarding `COc1ccc(-c2sc(C)nc2C(=O)N2CC(F)(F)C[C@@H](C)[C@H]2CNc2cnc(C(F)(F)F)cn2)cc1` [Compound 141], the IC50 on OX1 was determined as 6 nM.

With `Cc1nc(C(=O)N2CC(F)(F)C[C@@H](C)[C@H]2CNc2cnc(C(F)(F)F)cn2)c(-c2cc(F)ccn2)s1` [Compound 150], on OX2, the IC50 is greater than 5000 nM.

`C[C@@H]1CC(F)(F)CN(C(=O)c2cc(Cl)ccc2-c2nnn(C)n2)[C@@H]1CNc1ccc(C(F)(F)F)cn1` [Compound 182]: the half-maximal inhibitory concentration (IC50) at OX1 was found to be 17 nM.

As to `Cc1ccc(-c2sc(C)nc2C(=O)N2CC(F)(F)C[C@@H](C)[C@H]2CNc2ccc(C(F)(F)F)cn2)nc1` [Compound 197], the IC50 at OX2 is greater than 5000 nM.

For the molecule `Cc1ccc(-c2cn(C)nc2C(=O)N2CC(F)(F)C[C@@H](C)[C@H]2COc2ccc(C(F)(F)F)cn2)nc1` [Compound 206, ((2S,3R)-5,5-difluoro-3-methyl-2-(((5-(trifluoromethyl)pyridin-2-yl)oxy)methyl)piperidin-1-yl)(1-methyl-4-(5-methylpyridin-2-yl)-1H-pyrazol-3-yl)methanone], the IC50 at OX1 was found to be 22 nM.

On to `C[C@@H]1CC(F)(F)CN(C(=O)c2nn(C)cc2-c2ncc(F)cn2)[C@@H]1COc1cnc(C(F)(F)F)cn1` [Compound 244], for which, at OX2, the IC50 is greater than 5000 nM.

As to `C[C@@H]1CC(F)(F)CN(C(=O)c2nn(C)cc2-c2ncc(F)cn2)[C@@H]1COc1ncc(C(F)(F)F)cc1F` [Compound 245], at OX2, the IC50 was greater than 5000 nM.
